# pEC50: −log10 of the molar value. Read-outs that look alike come from different tables or passages of the source. Starred links: 1 amine or outer side, 2 acyl side, 3 side chain; linkers in the order of their positions; H or OH if unused. Non-standard residues stand in square brackets, D forms with d. Residues, ends and D or L forms follow the SMILES beside them. *: point of attachment. Ala(piperidin-4-yl) = O=C([C@H](CC1CCN([*:3])CC1)N[*:1])[*:2]; Malonyl(2,2-Me2,histaminyl) = CC(C)(C(=O)NCCc1cnc[nH]1)C(=O)*; dNMeBip = CN[C@H](Cc1ccc(-c2ccccc2)cc1)C(=O)O; dBip = N[C@H](Cc1ccc(-c2ccccc2)cc1)C(=O)O; Oic = O=C(O)[C@@H]1C[C@@H]2CCCC[C@@H]2N1; Phe(4-Br) = N[C@@H](Cc1ccc(Br)cc1)C(=O)O; X4 = CC(C)(C(=O)NCCCc1cnc[nH]1)C(=O)*; hArg = N=C(N)NCCCC[C@H](N)C(=O)O; 3Pal = N[C@@H](Cc1cccnc1)C(=O)O; NMeQ = CN[C@@H](CCC(N)=O)C(=O)O; Pip = O=C(O)[C@@H]1CCCCN1; Nle = CCCC[C@H](N)C(=O)O; Aib = CC(C)(N)C(=O)O
# Columns and labels:
# [1] = molecular target: T1, human Apelin receptor (Homo sapiens, UniProt P35414); experiment: cAMP accumulation assay (HTRF), functional agonism of human Apelin receptors; type: cell-based; conditions: for Emax: CHO; for EC50: read-out: pEC50 (converted); for pEC50: pEC50, Human Apelin agonist cAMP assay
# T1 sequence (P35414 1-380): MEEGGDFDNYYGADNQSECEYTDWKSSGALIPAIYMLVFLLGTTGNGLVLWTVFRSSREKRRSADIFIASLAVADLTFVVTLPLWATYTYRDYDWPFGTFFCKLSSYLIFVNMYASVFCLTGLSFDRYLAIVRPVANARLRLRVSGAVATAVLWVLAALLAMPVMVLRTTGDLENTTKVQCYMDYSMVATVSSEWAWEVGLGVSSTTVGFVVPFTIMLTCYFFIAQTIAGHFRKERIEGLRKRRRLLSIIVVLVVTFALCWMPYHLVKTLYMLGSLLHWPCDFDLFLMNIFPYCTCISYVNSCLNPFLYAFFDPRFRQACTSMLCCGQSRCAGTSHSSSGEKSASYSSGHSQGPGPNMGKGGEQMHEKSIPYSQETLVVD
# Text: cAMP functional assay. cAMP production was quantified using the Homogeneous Time-Resolved Fluorescence (HTRF) cAMP dynamic-2 assay (Cisbio, France).
# [2] = molecular target: T2, human Apelin receptor (Homo sapiens, UniProt P35414); experiment: β-arrestin accumulation assay, functional agonism of human Apelin receptors; type: cell-based
# T2 construct: host or cells: CHO-K1 cells
# In short: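 After 16 h at 37° C., cells were exposed to increasing agonist concentrations in serum-free medium for 90 min at 37° C. Detection reagent added for 60 min in the dark; receptor activation read by fluorescence and EC50 derived from concentration-response curves.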
# T2 sequence (P32121 whole entry partner, one chain of several): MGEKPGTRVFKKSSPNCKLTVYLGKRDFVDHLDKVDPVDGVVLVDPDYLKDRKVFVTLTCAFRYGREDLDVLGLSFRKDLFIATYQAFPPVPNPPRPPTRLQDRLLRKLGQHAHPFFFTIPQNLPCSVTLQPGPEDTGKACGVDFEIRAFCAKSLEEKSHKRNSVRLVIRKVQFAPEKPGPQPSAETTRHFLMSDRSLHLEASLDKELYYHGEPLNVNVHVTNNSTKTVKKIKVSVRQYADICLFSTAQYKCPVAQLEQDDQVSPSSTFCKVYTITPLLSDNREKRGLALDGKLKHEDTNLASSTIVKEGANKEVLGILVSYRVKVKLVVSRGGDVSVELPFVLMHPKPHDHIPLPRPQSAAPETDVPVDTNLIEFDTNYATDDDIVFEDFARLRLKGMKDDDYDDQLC
# [3] = Human Apelin agonist cAMP assay, CHO cells stably expressing the human Apelin receptor, 3 uM forskolin
# [4] = CHO cells stably expressing the human Apelin receptor, 3 uM forskolin
Structure (SMILES),Emax ([1]; read-out: Emax) [%],EC50 [1] [nM],pEC50 [2],"Emax [1, 3] [%]","pEC50 [1, 4]"
"CC(C)C[C@H](NC(=O)[C@@H](CCCNC(=N)N)NC(=O)[C@@H]1CCCCN1C(=O)[C@H](CCCCNC(=N)N)NC(=O)[C@H](CCC(N)=O)NC(=O)C(C)(C)C(=O)NCCc1cnc[nH]1)C(=O)NC(C)(C)C(=O)N[C@@H](Cc1c[nH]cn1)C(=O)N[C@@H](CC1CCNCC1)C(=O)N[C@@H](C)C(=O)N1[C@H](C(=O)N[C@@H](Cc2ccc(Br)cc2)C(=O)N2CCC[C@H]2C(=O)N[C@H](Cc2ccc(-c3ccccc3)cc2)C(=O)O)C[C@@H]2CCCC[C@@H]21 [Example 54] ({Malonyl(2,2-Me2,histaminyl)}-Q[hArg][Pip][dR]L[Aib]H[Ala(piperidin-4-yl)]A[Oic][Phe(4-Br)]P[dBip]-OH)",61.2,1.26,< 5.00,,
"CC(C)C[C@H](NC(=O)[C@@H](CCCNC(=N)N)NC(=O)[C@@H]1CCCCN1C(=O)[C@H](CCCNC(=N)N)NC(=O)[C@H](CCC(N)=O)NC(=O)C(C)(C)C(=O)NCCc1cnc[nH]1)C(=O)NC(C)(C)C(=O)N[C@@H](Cc1c[nH]cn1)C(=O)N[C@@H](CC1CCNCC1)C(=O)NCC(=O)N1[C@H](C(=O)N[C@@H](Cc2ccc(Br)cc2)C(=O)N2CCC[C@H]2C(=O)N[C@H](Cc2ccc(-c3ccccc3)cc2)C(=O)O)C[C@@H]2CCCC[C@@H]21 [Example 55] ({Malonyl(2,2-Me2,histaminyl)}-QR[Pip][dR]L[Aib]H[Ala(piperidin-4-yl)]G[Oic][Phe(4-Br)]P[dBip]-OH)",85.9,12.6,< 5.00,,
"CC(C)C[C@H](NC(=O)[C@@H](CCCNC(=N)N)NC(=O)[C@@H]1CCCCN1C(=O)[C@H](CCCCNC(=N)N)NC(=O)[C@H](CCC(N)=O)NC(=O)C(C)(C)C(=O)NCCc1cnc[nH]1)C(=O)NC(C)(C)C(=O)N[C@@H](Cc1cccnc1)C(=O)N[C@@H](CC1CCNCC1)C(=O)NCC(=O)N1[C@H](C(=O)N[C@@H](Cc2ccc(Br)cc2)C(=O)N2CCC[C@H]2C(=O)N[C@H](Cc2ccc(-c3ccccc3)cc2)C(=O)O)C[C@@H]2CCCC[C@@H]21 [Example 56] ({Malonyl(2,2-Me2,histaminyl)}-Q[hArg][Pip][dR]L[Aib][3Pal][Ala(piperidin-4-yl)]G[Oic][Phe(4-Br)]P[dBip]-OH)",68.1,20,< 5.00,,
"CC(C)C[C@H](NC(=O)[C@@H](CCCNC(=N)N)NC(=O)[C@@H]1CCCN1C(=O)[C@H](CCCCNC(=N)N)NC(=O)[C@H](CCC(N)=O)NC(=O)C(C)(C)C(=O)NCCc1cnc[nH]1)C(=O)NC(C)(C)C(=O)N[C@@H](Cc1cnc[nH]1)C(=O)N[C@@H](CC1CCNCC1)C(=O)NCC(=O)N1[C@H](C(=O)N[C@@H](Cc2ccc(Br)cc2)C(=O)N2CCC[C@H]2C(=O)N(C)[C@H](Cc2ccc(-c3ccccc3)cc2)C(=O)O)C[C@@H]2CCCC[C@@H]21 [Example 57] ({Malonyl(2,2-Me2,histaminyl)}-Q[hArg]P[dR]L[Aib]H[Ala(piperidin-4-yl)]G[Oic][Phe(4-Br)]P[dNMeBip]-OH)",,,< 5.00,45.9,7.20
"CC(C)C[C@H](NC(=O)[C@@H](CCCNC(=N)N)NC(=O)[C@@H]1CCCN1C(=O)[C@H](CCCCNC(=N)N)NC(=O)[C@H](CCC(N)=O)N(C)C(=O)C(C)(C)C(=O)NCCc1cnc[nH]1)C(=O)NC(C)(C)C(=O)N[C@@H](Cc1c[nH]cn1)C(=O)N[C@@H](CC1CCNCC1)C(=O)NCC(=O)N1[C@H](C(=O)N[C@@H](Cc2ccc(Br)cc2)C(=O)N2CCC[C@H]2C(=O)N[C@H](Cc2ccc(-c3ccccc3)cc2)C(=O)O)C[C@@H]2CCCC[C@@H]21 [Example 58] ({Malonyl(2,2-Me2,histaminyl)}-[NMeQ][hArg]P[dR]L[Aib]H[Ala(piperidin-4-yl)]G[Oic][Phe(4-Br)]P[dBip]-OH)",,,< 4.00,33,6.10
"CCCC[C@H](NC(=O)[C@@H]1C[C@@H]2CCCC[C@@H]2N1C(=O)CNC(=O)[C@H](CC1CCNCC1)NC(=O)[C@H](Cc1c[nH]cn1)NC(=O)[C@@H](C)NC(=O)[C@H](CC(C)C)NC(=O)[C@H](CCCNC(=N)N)NC(=O)[C@@H]1CCCN1C(=O)[C@H](CCCNC(=N)N)NC(=O)[C@H](CCC(N)=O)NC(=O)C(C)(C)C(=O)NCCc1cnc[nH]1)C(=O)N1CCC[C@H]1C(=O)N[C@H](Cc1ccc(-c2ccccc2)cc1)C(=O)O [Example 59] ({Malonyl(2,2-Me2,histaminyl)}-QRPRL[dA]H[Ala(piperidin-4-yl)]G[Oic][Nle]P[dBip]-OH)",,,< 5.00,48.1,7.00
"CCCC[C@H](NC(=O)[C@@H]1C[C@@H]2CCCC[C@@H]2N1C(=O)CNC(=O)[C@H](CC1CCNCC1)NC(=O)[C@H](Cc1ccc(Br)cc1)NC(=O)C(C)(C)NC(=O)[C@H](CC(C)C)NC(=O)[C@@H](CCCNC(=N)N)NC(=O)[C@@H]1CCCN1C(=O)[C@H](CCCCNC(=N)N)NC(=O)[C@H](CCC(N)=O)NC(=O)C(C)(C)C(=O)NCCc1cnc[nH]1)C(=O)N1CCC[C@H]1C(=O)N[C@H](Cc1ccc(-c2ccccc2)cc1)C(=O)O [Example 60] ({Malonyl(2,2-Me2,histaminyl)}-Q[hArg]P[dR]L[Aib][Phe(4-Br)][Ala(piperidin-4-yl)]G[Oic][Nle]P[dBip]-OH)",59,50.1,< 5.00,,
CC(C)C[C@H](NC(=O)[C@@H](CCCNC(=N)N)NC(=O)[C@@H]1CCCN1C(=O)[C@H](CCCCNC(=N)N)NC(=O)[C@H](CCC(N)=O)NC(=O)C(C)(C)C(=O)NCCCc1cnc[nH]1)C(=O)NC(C)(C)C(=O)N[C@@H](Cc1c[nH]cn1)C(=O)N[C@@H](CC1CCNCC1)C(=O)NCC(=O)N1[C@H](C(=O)N[C@@H](Cc2ccc(Br)cc2)C(=O)N2CCC[C@H]2C(=O)N[C@H](Cc2ccc(-c3ccccc3)cc2)C(=O)O)C[C@@H]2CCCC[C@@H]21 [Example 61] (X4-Q[hArg]P[dR]L[Aib]H[Ala(piperidin-4-yl)]G[Oic][Phe(4-Br)]P[dBip]-OH),,,< 4.00,41.8,8.00
"CCCC[C@H](NC(=O)[C@@H]1C[C@@H]2CCCC[C@@H]2N1C(=O)[C@H](C)NC(=O)[C@H](CC1CCNCC1)NC(=O)[C@H](Cc1ccc(Br)cc1)NC(=O)C(C)(C)NC(=O)[C@H](CC(C)C)NC(=O)[C@@H](CCCNC(=N)N)NC(=O)[C@@H]1CCCCN1C(=O)[C@H](CCCCNC(=N)N)NC(=O)[C@H](CCC(N)=O)NC(=O)C(C)(C)C(=O)NCCc1cnc[nH]1)C(=O)N1CCC[C@H]1C(=O)N[C@H](Cc1ccc(-c2ccccc2)cc1)C(=O)O [Example 62] ({Malonyl(2,2-Me2,histaminyl)}-Q[hArg][Pip][dR]L[Aib][Phe(4-Br)][Ala(piperidin-4-yl)]A[Oic][Nle]P[dBip]-OH)",31.7,100,< 5.00,,

# — patent publication US20230382949A1 (HEPTARES THERAPEUTICS LIMITED, priority 2020, published 2023)
